Broadly, the IC50 is the concentration at which inhibition is half-maximal.

A value given as a limit tells only on which side of the number the result lay.

18 compounds from ChEMBL document CHEMBL4007403, “Identification of Triazolothiadiazoles as Potent Inhibitors of the dCTP Pyrophosphatase 1” (J Med Chem, 2017) can be followed below.

One data set addresses T1, dCTP pyrophosphatase 1 (Homo sapiens, UniProt Q9H773).
T1 sequence (Q9H773 whole entry): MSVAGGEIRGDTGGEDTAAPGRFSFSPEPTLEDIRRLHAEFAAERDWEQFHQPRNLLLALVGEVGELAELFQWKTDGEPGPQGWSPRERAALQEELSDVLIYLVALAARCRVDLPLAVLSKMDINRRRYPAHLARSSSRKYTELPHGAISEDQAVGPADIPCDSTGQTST
The data set can be described thus: Inhibition of recombinant human N-terminal His-tagged dCTPase 1 expressed in Escherichia coli BL21(DE3)pLysS using dCTP as substrate after 1 hr by malachite green reagent based assay.

A short description of data set [1]: Stability of the compound in DMSO measured after several months by HPLC-MS analysis. It is filed as physicochemical.
Data set [2] can be described thus: Stability of the compound in biochemical assay buffer under mildly acidic mobile phase conditions by HPLC-MS analysis. It is filed as physicochemical.
The nature of data set [3]: Stability of the compound in biochemical assay buffer under basic mobile phase conditions by HPLC-MS analysis. The class given is physicochemical.

Regarding `Cc1ccccc1-c1nn2c(-c3ccccn3)nnc2s1`, at dCTP pyrophosphatase 1, the IC50 lay within 505 to 746 nM. Besides, the Stability entry in data set [1], in data set [2] and in data set [3] was “Stable” throughout.
Take `c1ccc(-c2nnc3sc(-c4cccc5ccccc45)nn23)nc1`: on dCTP pyrophosphatase 1, the IC50 is 204 nM. In addition, the Stability entry in data set [1], in data set [2] and in data set [3] was “Stable” throughout.
Take `Fc1ccccc1-c1nnc2sc(-c3ccccc3)nn12`: the IC50 at dCTP pyrophosphatase 1 came to 410 nM. For the same compound, the Stability result in data set [1], in data set [2] and in data set [3] was “Stable” in each case.
Regarding `CCOc1ccc(-c2nn3c(-c4ccccn4)nnc3s2)cc1`, the IC50 on dCTP pyrophosphatase 1 was 449 nM. For the same compound, the Stability entry in data set [1], in data set [2] and in data set [3] was “Stable” throughout.
As to `Clc1ccc(/C=C/Cc2nn3c(-c4ccccn4)nnc3s2)cc1`, the IC50 at dCTP pyrophosphatase 1 turned out to be 220 nM. Also, the Stability result in data set [1], in data set [2] and in data set [3] was “Stable” throughout.
As for `c1ccc(CCCCc2nn3c(-c4ccccn4)nnc3s2)cc1`, at dCTP pyrophosphatase 1, the IC50 turned out to be 1370 nM. Besides, the Stability result in data set [1], in data set [2] and in data set [3] was “Stable” throughout.
On to `c1coc(-c2nnc3sc(-c4cccs4)nn23)c1`, for which the IC50 at dCTP pyrophosphatase 1 was determined as 704 nM. Moreover, the Stability result in data set [1], in data set [2] and in data set [3] was “Stable” throughout.
In the case of `COc1ccc(-c2nn3c(-c4ccccn4)nnc3s2)cc1`, on dCTP pyrophosphatase 1, the IC50 is 282 to 316 nM. Further, the Stability result in data set [1], in data set [2] and in data set [3] was “Stable” in each case.
`COc1cccc(-c2nn3c(-c4ccccn4)nnc3s2)c1`: at dCTP pyrophosphatase 1, the IC50 came out at 1880 nM. Moreover, the Stability result in data set [1], in data set [2] and in data set [3] was “Stable” throughout.
Take `Cc1ccc(-c2nn3c(-c4ccccn4)nnc3s2)cc1`: on dCTP pyrophosphatase 1, the IC50 came to 469 nM. In addition, the Stability entry in data set [1], in data set [2] and in data set [3] was “Stable” in each case.
`Fc1ccc(-c2nn3c(-c4ccccn4)nnc3s2)cc1`: the IC50 at dCTP pyrophosphatase 1 was found to be 332 nM. Moreover, the Stability entry in data set [1], in data set [2] and in data set [3] was “Stable” in each case.
For `Cc1cc(-c2nn3c(-c4ccccn4)nnc3s2)c2ccccc2n1`, the IC50 on dCTP pyrophosphatase 1 was determined as 314 nM. For the same compound, the Stability entry in data set [1], in data set [2] and in data set [3] was “Stable” in each case.
As for `Cc1ccccc1-c1nn2c(-c3cnccn3)nnc2s1`, at dCTP pyrophosphatase 1, the IC50 was determined as 691 nM. Further, the Stability entry in data set [1], in data set [2] and in data set [3] was “Stable” each time.
On to `CN(C)c1cccc(-c2nn3c(-c4ccccn4)nnc3s2)c1`, for which the IC50 at dCTP pyrophosphatase 1 came out at 277 nM. Also, the Stability entry in data set [1], in data set [2] and in data set [3] was “Stable” in each case.
As to `CCCc1nnc2sc(-c3cccc(OC)c3)nn12`, on dCTP pyrophosphatase 1, the IC50 is 7460 nM. Moreover, the Stability entry in data set [1], in data set [2] and in data set [3] was “Stable” each time.
With `c1ccc(-c2nnc3sc(-c4ccc5ccccc5c4)nn23)nc1`, on dCTP pyrophosphatase 1, the half-maximal inhibitory concentration (IC50) was 95 nM. For the same compound, the Stability result in data set [1], in data set [2] and in data set [3] was “Stable” each time.
With `COc1cccc(-c2nn3c(-c4ccncc4)nnc3s2)c1`, on dCTP pyrophosphatase 1, the IC50 was > 10000 nM. Further, the Stability result in data set [1], in data set [2] and in data set [3] was “Stable” each time.
With `Brc1ccc(-c2nn3c(-c4ccccn4)nnc3s2)cc1`, the IC50 on dCTP pyrophosphatase 1 came out at 164 nM. Moreover, the Stability entry in data set [1], in data set [2] and in data set [3] was “Stable” in each case.
